Consider 30 molecules from US20240270741A1 (Cogent Biosciences, Inc., priority 2023, published 2024).

For one assay, the target named is FGFR2 (Homo sapiens, UniProt P21802). Briefly: FGFR wild type enzyme assay (HTRF KinEASE-TK), FGFR2. The settings on record: Enz FGFR2 (nM). On the technique in general: TR-FRET usually uses a lanthanide donor and a delayed reading to cut background.
FGFR2, sequence (P21802 399-821 limits assumed): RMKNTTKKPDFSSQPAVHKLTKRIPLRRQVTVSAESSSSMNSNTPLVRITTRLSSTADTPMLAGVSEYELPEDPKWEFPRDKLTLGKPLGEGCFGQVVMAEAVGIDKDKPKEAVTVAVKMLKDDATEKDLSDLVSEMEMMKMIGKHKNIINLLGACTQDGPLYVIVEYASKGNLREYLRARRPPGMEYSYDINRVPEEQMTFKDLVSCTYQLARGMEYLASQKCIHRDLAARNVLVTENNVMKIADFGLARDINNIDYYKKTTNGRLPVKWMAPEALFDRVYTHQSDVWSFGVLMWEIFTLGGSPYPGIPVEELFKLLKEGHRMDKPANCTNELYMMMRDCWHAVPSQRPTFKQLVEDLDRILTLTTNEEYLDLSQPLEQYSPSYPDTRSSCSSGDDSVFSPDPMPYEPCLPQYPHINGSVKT
As usually defined, the IC50 is the midpoint of a concentration-inhibition curve. Read a high IC50 as weaker potency in that assay. Regarding `Cc1cc(Sc2cc(-c3cnn(C4CCNCC4)c3C)cn3ncc(C#N)c23)c(F)cn1` [Example 116, -[(5-fluoro-2-methyl-4-pyridyl)sulfanyl]-6-[5-methyl-1-(4-piperidyl)pyrazol-4-yl]pyrazolo[1,5-a]pyridine-3-carbonitrile], half-maximal inhibition (IC50) was put at 45 nM.
Still for that read-out and setting: under `Cc1c(-c2cc(Sc3ccccc3C#N)c3c(C#N)cnn3c2)cnn1[C@H]1CCCNC1` [Example 105, 4-(2-cyanophenyl)sulfanyl-6-[5-methyl-1-[(3S)-3-piperidyl]pyrazol-4-yl]pyrazolo[1,5-a]pyridine-3-carbonitrile] stands 1 nM; under `Cc1c(-c2cc(Sc3ccccc3C#N)c3c(C#N)cnn3c2)cnn1[C@H]1CC[C@@H](N(C)C)CC1` [Example 124], 1 nM.
For `Cc1ccc(F)c(Sc2cc(-c3cnn(C4CCN(C)CC4)c3C)cn3ncc(C#N)c23)n1` [Example 111, 4-[(3-fluoro-6-methyl-2-pyridyl)sulfanyl]-6-[5-methyl-1-(1-methyl-4-piperidyl)pyrazol-4-yl]pyrazolo[1,5-a]pyridine-3-carbonitrile], the IC50 was found to be 3 nM. This IC50 lies about 3-fold higher than the previous one.

Still in this assay, the particulars now being: Enz FGFR2 (nM), FGFR2 wild type enzyme.
For `Cc1c(-c2cc(Sc3ncccc3F)c3c(C#N)cnn3c2)cnn1[C@@H](C)[C@H](O)CO` [Example 198, 6-(1-((2S,3S)-3,4-dihydroxybutan-2-yl)-5-methyl-1H-pyrazol-4-yl)-4-((3-fluoropyridin-2-yl)thio)pyrazolo[1,5-a]pyridine-3-carbonitrile], inhibition was half-maximal at 21 nM (IC50).
`Cc1c(-c2cc(Sc3ccc(F)cn3)c3c(C#N)cnn3c2)cnn1C1CCN(C)CC1` [Example 329, 4-((5-fluoropyridin-2-yl)thio)-6-(5-methyl-1-(1-methylpiperidin-4-yl)-1H-pyrazol-4-yl)pyrazolo[1,5-a]pyridine-3-carbonitrile] had an IC50 of 5 nM.
Take `Cc1nn(C2CCN(C)CC2)c(C)c1-c1cc(Sc2ccccc2C#N)c2c(C#N)cnn2c1` [Example 305, 4-((2-cyanophenyl)thio)-6-(3,5-dimethyl-1-(1-methylpiperidin-4-yl)-1H-pyrazol-4-yl)pyrazolo[1,5-a]pyridine-3-carbonitrile]: the IC50 came out at 5 nM.
Same read-out and setting: in the case of `Cc1c(-c2cc(Sc3ncccc3F)c3c(C#N)cnn3c2)cnn1C1CCN(C(=O)[C@@H](C)N(C)C)CC1` [Example 214, 6-(1-(1-(dimethyl-D-alanyl)piperidin-4-yl)-5-methyl-1H-pyrazol-4-yl)-4-((3-fluoropyridin-2-yl)thio)pyrazolo[1,5-a]pyridine-3-carbonitrile] it was 1.6 nM; in that of `Cc1c(-c2cc(Sc3ncc(F)cc3F)c3c(C#N)cnn3c2)cnn1C1CCN(C(=O)CO)CC1` [Example 191, 4-((3,5-difluoropyridin-2-yl)thio)-6-(1-(1-(2-hydroxyacetyl)piperidin-4-yl)-5-methyl-1H-pyrazol-4-yl)pyrazolo[1,5-a]pyridine-3-carbonitrile], 4 nM.
Molecule `Cc1c(-c2cc(Sc3ncccc3F)c3c(C#N)cnn3c2)cnn1[C@H]1CC[C@]2(CCNC2)CC1` [Example 219, 4-((3-fluoropyridin-2-yl)thio)-6-(5-methyl-1-((5s,8s)-2-azaspiro[3.4]decan-8-yl)-1H-pyrazol-4-yl)pyrazolo[1,5-a]pyridine-3-carbonitrile] returned an IC50 of 0.5 nM.
Consider `Cc1c(-c2cc(Sc3ncccc3F)c3c(C#N)cnn3c2)cnn1[C@H](C)C1CCNCC1` [Example 218, (R)-4-((3-fluoropyridin-2-yl)thio)-6-(5-methyl-1-(1-(piperidin-4-yl)ethyl)-1H-pyrazol-4-yl)pyrazolo[1,5-a]pyridine-3-carbonitrile], for which the IC50 amounted to 3 nM.
Molecule `CC(=O)N1CCC[C@@H](Cn2ncc(-c3cc(Sc4ccccc4C#N)c4c(C#N)cnn4c3)c2C)C1` [Example 224, (R)-6-(1-((1-acetylpiperidin-3-yl)methyl)-5-methyl-1H-pyrazol-4-yl)-4-((2-cyanophenyl)thio)pyrazolo [1,5-a]pyridine-3-carbonitrile] gave an IC50 of 8 nM. This IC50 is about 2.7-fold higher than that of the molecule before.
Same read-out and setting: in the case of `Cc1nn([C@H]2CC[C@@H](O)CC2)cc1-c1cc(Sc2ccccc2C#N)c2c(C#N)cnn2c1` [Example 313, 4-((2-cyanophenyl)thio)-6-(1-((1s,4s)-4-hydroxycyclohexyl)-3-methyl-1H-pyrazol-4-yl)pyrazolo[1,5-a]pyridine-3-carbonitrile] it was 1 nM; in that of `Cc1c(-c2cc(Sc3ncccc3F)c3c(C#N)cnn3c2)cnn1C1CCN(C(=O)[C@@H]2C[C@@H](F)CN2C)CC1` [Example 196, 6-(1-(1-((2S,4R)-4-fluoro-1-methylpyrrolidine-2-carbonyl)piperidin-4-yl)-5-methyl-1H-pyrazol-4-yl)-4-((3-fluoropyridin-2-yl)thio)pyrazolo[1,5-a]pyridine-3-carbonitrile], 1 nM.

Still in this assay, the particulars now being: Enz FGFR2 (nM), FGFR2 wild type enzyme assay.
`CC(=O)N1CCC(N(C)c2ccc(-c3cc(Sc4ccccc4C#N)c4c(C#N)cnn4c3)cn2)CC1` [Example 659, 6-(6-((1-acetylpiperidin-4-yl)(methyl)amino)pyridin-3-yl)-4-((2-cyanophenyl)thio)pyrazolo [1,5-a]pyridine-3-carbonitrile] registered an IC50 of 0.3 nM.
As to `Cc1cccc(Sc2cc(-c3cnn(C)c3)cn3ncc(C#N)c23)c1C#N` [Example 576, 4-((2-cyano-3-methylphenyl)thio)-6-(1-methyl-1H-pyrazol-4-yl)pyrazolo[1,5-a]pyridine-3-carbonitrile], the IC50 was 7 nM.
With `N#Cc1ccccc1Sc1cc(-c2cnn(C3CCN(C(=O)CO)CC3)c2)cn2ncc(C#N)c12` [Example 446, 4-((2-cyanophenyl)thio)-6-(1-(1-(2-hydroxyacetyl)piperidin-4-yl)-1H-pyrazol-4-yl)pyrazolo[1,5-a]pyridine-3-carbonitrile], inhibition was half-maximal at 0.5 nM (IC50).
In turn, `CC(=O)NC1CCN(c2ccc(-c3cc(Sc4ccc(F)cc4C#N)c4c(C#N)cnn4c3)cn2)C1` (stereo not drawn) [Example 645] gave an IC50 of 1.6 nM.
The molecule `Cc1c(-c2cc(Sc3ccc(F)cc3C#N)c3c(C#N)cnn3c2)cnn1[C@H]1CC[C@H](OC(=O)CN)CC1` [Example 636, (1r,4r)-4-(4-(3-cyano-4-((2-cyano-4-fluorophenyl)thio)pyrazolo [1,5-a]pyridin-6-yl)-5-methyl-1H-pyrazol-1-yl)cyclohexyl glycinate] showed an IC50 of 1 nM.
In turn, `N#Cc1ccccc1Sc1cc(-c2cnn([C@@H]3CCNC(=O)C3)c2)cn2ncc(C#N)c12` [Example 591, (R)-4-((2-cyanophenyl)thio)-6-(1-(2-oxopiperidin-4-yl)-1H-pyrazol-4-yl)pyrazolo[1,5-a]pyridine-3-carbonitrile] had an IC50 of 0.4 nM.
In turn, `CN1CC[C@@H](n2cc(-c3cc(Sc4ccccc4C#N)c4c(C#N)cnn4c3)cn2)CC1=O` [Example 618, (R)-4-((2-cyanophenyl)thio)-6-(1-(1-methyl-2-oxopiperidin-4-yl)-1H-pyrazol-4-yl)pyrazolo[1,5-a]pyridine-3-carbonitrile] returned an IC50 of 0.4 nM. In other words, the sub-nanomolar range.
With `Cc1c(-c2cc(Sc3ncc(F)cc3F)c3c(C#N)cnn3c2)cnn1[C@H]1CCCN(C)C1` [Example 346, (S)-4-((3,5-difluoropyridin-2-yl)thio)-6-(5-methyl-1-(1-methylpiperidin-3-yl)-1H-pyrazol-4-yl)pyrazolo[1,5-a]pyridine-3-carbonitrile], the IC50 was 5 nM.
For `CC(C)(O)Cn1cc(-c2cc(Sc3ccccc3C#N)c3c(C#N)cnn3c2)cn1` [Example 494, 4-((2-cyanophenyl)thio)-6-(1-(2-hydroxy-2-methylpropyl)-1H-pyrazol-4-yl)pyrazolo[1,5-a]pyridine-3-carbonitrile], inhibition was half-maximal at 1 nM (IC50). Against the preceding molecule, the IC50 is about 5-fold lower.
For the molecule `C[C@]1(O)CC[C@H](n2cc(-c3cc(Sc4ccc(F)cc4C#N)c4c(C#N)cnn4c3)cn2)CC1` [Example 501, 4-((2-cyano-4-fluorophenyl)thio)-6-(1-((1r,4r)-4-hydroxy-4-methylcyclohexyl)-1H-pyrazol-4-yl)pyrazolo[1,5-a]pyridine-3-carbonitrile], the IC50 worked out at 1 nM. This counts as single-digit nanomolar.
Take `N#Cc1ccccc1Sc1cc(-c2cnn(C3CCOCC3)c2)cn2ncc(C#N)c12` [Example 542, 4-((2-cyanophenyl)thio)-6-(1-(tetrahydro-2H-pyran-4-yl)-1H-pyrazol-4-yl)pyrazolo[1,5-a]pyridine-3-carbonitrile]: the IC50 came to 0.4 nM.
Regarding `Cc1c(-c2cc(Sc3ccc(F)cc3C#N)c3c(C#N)cnn3c2)cnn1[C@H]1CC[C@](C)(N)CC1` [Example 351, 6-(1-((1r,4r)-4-amino-4-methylcyclohexyl)-5-methyl-1H-pyrazol-4-yl)-4-((2-cyano-4-fluorophenyl)thio)pyrazolo [1,5-a]pyridine-3-carbonitrile], the IC50 was 0.5 nM.
Molecule `N#Cc1ccccc1Sc1cc(-c2cnn(C[C@H](O)CO)c2)cn2ncc(C#N)c12` [Example 544, (S)-4-((2-cyanophenyl)thio)-6-(1-(2,3-dihydroxypropyl)-1H-pyrazol-4-yl)pyrazolo[1,5-a]pyridine-3-carbonitrile] gave an IC50 of 1 nM.
In the case of `COCC(=O)N1CCC(n2cc(-c3cc(Sc4ccccc4C#N)c4c(C#N)cnn4c3)cn2)CC1` [Example 538, 4-((2-cyanophenyl)thio)-6-(1-(1-(2-methoxyacetyl)piperidin-4-yl)-1H-pyrazol-4-yl)pyrazolo[1,5-a]pyridine-3-carbonitrile], the IC50 was 0.3 nM.
Still for that read-out and setting: in the case of `Cc1nn([C@H]2CCCN(C(=O)CO)C2)cc1-c1cc(Sc2ccc(F)cc2C#N)c2c(C#N)cnn2c1` [Example 426, (S)-4-((2-cyano-4-fluorophenyl)thio)-6-(1-(1-(2-hydroxyacetyl)piperidin-3-yl)-3-methyl-1H-pyrazol-4-yl)pyrazolo[1,5-a]pyridine-3-carbonitrile] it was 4 nM; in that of `CC(=O)N1CC[C@@H](n2cc(-c3cc(Sc4ccccc4C#N)c4c(C#N)cnn4c3)cn2)C1` [Example 582, (R)-6-(1-(1-acetylpyrrolidin-3-yl)-1H-pyrazol-4-yl)-4-((2-cyanophenyl)thio)pyrazolo [1,5-a]pyridine-3-carbonitrile], 1 nM.
